Results on 30 molecules are retold here after US10738056B2 (Aduro BioTech, Inc., priority 2017, dated 2020).

The structures appear in SMILES notation.

The IC50 is the concentration that inhibits the measured activity by half.

The target in this assay is Human cGAS amino acids 155-522 (Homo sapiens (Human), UniProt Q8N884). Description: cGAS biochemical activity assay (ATP remaining, Kinase-Glo Max luminescence). Conditions: human cGAS 155-522, ATP remaining (Kinase-Glo Max); read-out: cGAS IC50. Background: In Kinase-Glo more light means more ATP remaining.
Human cGAS amino acids 155-522, sequence (Q8N884 157-522): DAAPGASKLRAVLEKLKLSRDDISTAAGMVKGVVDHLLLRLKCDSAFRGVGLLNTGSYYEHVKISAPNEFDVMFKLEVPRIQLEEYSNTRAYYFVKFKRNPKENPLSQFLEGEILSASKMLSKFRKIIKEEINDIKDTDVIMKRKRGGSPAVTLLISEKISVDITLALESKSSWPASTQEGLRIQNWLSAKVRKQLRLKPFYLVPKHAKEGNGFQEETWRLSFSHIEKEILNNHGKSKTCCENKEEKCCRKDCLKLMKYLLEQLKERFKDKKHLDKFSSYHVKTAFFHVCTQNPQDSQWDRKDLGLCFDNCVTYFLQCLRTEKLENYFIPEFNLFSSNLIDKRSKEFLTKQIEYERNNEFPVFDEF
Regarding `Cc1[nH]c2c(-c3ccccc3)c(C(F)(F)F)nn2c(=O)c1-c1nnc(C2CCCCN2C(=O)OC(C)(C)C)o1` (stereo not drawn) [Compound D1045, tert-butyl 2-(5-(5-methyl-7-oxo-3-phenyl-2-(trifluoromethyl)-4,7-dihydropyrazolo[1,5-a]pyrimidin-6-yl)-1,3,4-oxadiazol-2-yl)piperidine-1-carboxylate], the IC50 is 20 to 250 µM.

`Cc1ccccc1NC(=O)c1c(C)[nH]c2c(-c3ccccc3)c(C(F)(F)F)nn2c1=O` [Compound A1037, 5-methyl-7-oxo-3-phenyl-N-(o-tolyl)-2-(trifluoromethyl)-4,7-dihydropyrazolo[1,5-a]pyrimidine-6-carboxamide]: the IC50 lay in the range of 20 to 250 µM.

Take `Cc1[nH]c2c(-c3ccccc3)c(C(F)(F)F)nn2c(=O)c1C(=O)Nc1ccnn1C` [Compound A1078, 5-methyl-N-(1-methyl-1H-pyrazol-5-yl)-7-oxo-3-phenyl-2-(trifluoromethyl)-4,7-dihydropyrazolo[1,5-a]pyrimidine-6-carboxamide]: the IC50 is 20 to 250 µM.

Consider `COc1cccc(NC(=O)c2c(C)[nH]c3c(-c4ccccc4)c(C(F)(F)F)nn3c2=O)c1OC` [Compound A1043, N-(2,3-dimethoxyphenyl)-5-methyl-7-oxo-3-phenyl-2-(trifluoromethyl)-4,7-dihydropyrazolo[1,5-a]pyrimidine-6-carboxamide], for which the IC50 lay within 20 to 250 µM.

As for `COc1c(Cl)cccc1NC(=O)c1c(C)[nH]c2c(-c3ccccc3)c(C(F)(F)F)nn2c1=O` [Compound A1138, N-(3-chloro-2-methoxyphenyl)-5-methyl-7-oxo-3-phenyl-2-(trifluoromethyl)-4,7-dihydropyrazolo[1,5-a]pyrimidine-6-carboxamide], the IC50 was in the range of 20 to 250 µM.

For `Cc1[nH]c2c(-c3ccccc3)c(C(F)(F)F)nn2c(=O)c1-c1nnc(C2CCOC2)o1` (stereo not drawn) [Compound D1013, 5-methyl-3-phenyl-6-(5-(tetrahydrofuran-3-yl)-1,3,4-oxadiazol-2-yl)-2-(trifluoromethyl)pyrazolo[1,5-a]pyrimidin-7(4H)-one], the IC50 lay within 20 to 250 µM.

`Cc1[nH]c2c(-c3ccccc3)c(C(F)(F)F)nn2c(=O)c1-c1nnc(N2CCCC(CN)C2)o1` (stereo not drawn) [Compound D1083, 6-(5-(3-(aminomethyl)piperidin-1-yl)-1,3,4-oxadiazol-2-yl)-5-methyl-3-phenyl-2-(trifluoromethyl)pyrazolo[1,5-a]pyrimidin-7(4H)-one]: the IC50 lay within 20 to 250 µM.

On to `COc1cccc2c1nc(-c1c(C)[nH]c3c(-c4ccccc4)c(C(F)(F)F)nn3c1=O)n2CC(=O)O` [Compound C1221, 2-(4-methoxy-2-(5-methyl-7-oxo-3-phenyl-2-(trifluoromethyl)-4,7-dihydropyrazolo[1,5-a]pyrimidin-6-yl)-1H-benzo[d]imidazol-1-yl)acetic acid], for which the IC50 is 20 to 250 µM.

With `Cc1[nH]c2c(-c3ccccc3)c(C(F)(F)F)nn2c(=O)c1-c1cnc2ccccc2c1` [Compound C1007, 5-methyl-3-phenyl-6-(quinolin-3-yl)-2-(trifluoromethyl)pyrazolo[1,5-a]pyrimidin-7(4H)-one], the IC50 fell in the range of 20 to 250 µM.

As for `Cc1[nH]c2c(-c3cccnc3)c(C(F)(F)F)nn2c(=O)c1-c1nc2c(o1)CCCC2` [Compound C1036, 5-methyl-3-(pyridin-3-yl)-6-(4,5,6,7-tetrahydrobenzo[d]oxazol-2-yl)-2-(trifluoromethyl)pyrazolo[1,5-a]pyrimidin-7(4H)-one], the half-inhibitory concentration (IC50) was above 250 µM.

Turning to `COc1ccc(NC(=O)c2c(C)[nH]c3c(-c4ccccc4)c(C(F)(F)F)nn3c2=O)cc1` [Compound A1001, N-(4-methoxyphenyl)-5-methyl-7-oxo-3-phenyl-2-(trifluoromethyl)-4,7-dihydropyrazolo[1,5-a]pyrimidine-6-carboxamide], the IC50 is 20 to 250 µM.

With `Cc1[nH]c2c(-c3ccccc3)c(C#N)nn2c(=O)c1-c1nc2c(OC3CC3)cccc2o1` [Compound C1277, 6-(4-cyclopropoxybenzo[d]oxazol-2-yl)-5-methyl-7-oxo-3-phenyl-4,7-dihydropyrazolo[1,5-a]pyrimidine-2-carbonitrile], the IC50 is below 20 µM.

As to `COc1cccc2oc(-c3c(C)[nH]c4c(-c5ccccc5)c(C(=O)O)nn4c3=O)nc12` [Compound C1043, 6-(4-methoxybenzo[d]oxazol-2-yl)-5-methyl-7-oxo-3-phenyl-4,7-dihydropyrazolo[1,5-a]pyrimidine-2-carboxylic acid], the IC50 is above 250 µM.

With `Cc1[nH]c2c(-c3ccccc3)c(C(F)(F)F)nn2c(=O)c1C(=O)Nc1ccc(C#N)cc1` [Compound A1015, N-(4-cyanophenyl)-5-methyl-7-oxo-3-phenyl-2-(trifluoromethyl)-4,7-dihydropyrazolo[1,5-a]pyrimidine-6-carboxamide], the IC50 lay in the range of 20 to 250 µM.

As for `Cc1[nH]c2c(-c3ccccc3)c(C(F)(F)F)nn2c(=O)c1C(=O)N1CCN(c2ccccc2)CC1` [Compound A1003, 5-methyl-3-phenyl-6-(4-phenylpiperazine-1-carbonyl)-2-(trifluoromethyl)pyrazolo[1,5-a]pyrimidin-7(4H)-one], the IC50 was above 250 µM.

`Cc1[nH]c2c(-c3ccccc3)c(C(F)(F)F)nn2c(=O)c1C(=O)Nc1ccccc1NS(=O)(=O)C1CCCCC1` [Compound A1119, N-(2-(cyclohexanesulfonamido)phenyl)-5-methyl-7-oxo-3-phenyl-2-(trifluoromethyl)-4,7-dihydropyrazolo[1,5-a]pyrimidine-6-carboxamide]: the IC50 was 20 to 250 µM.

On to `COc1cccc(NCCc2c(C)[nH]c3c(-c4ccccc4)c(C(F)(F)F)nn3c2=O)c1` [Compound B1015, 6-(2-((3-methoxyphenyl)amino)ethyl)-5-methyl-3-phenyl-2-(trifluoromethyl)pyrazolo[1,5-a]pyrimidin-7(4H)-one], for which the IC50 is below 20 µM.

With `COCC1CCCCN1c1nnc(-c2c(C)[nH]c3c(-c4ccccc4)c(C(F)(F)F)nn3c2=O)o1` (stereo not drawn) [Compound D1060, 6-(5-(2-(methoxymethyl)piperidin-1-yl)-1,3,4-oxadiazol-2-yl)-5-methyl-3-phenyl-2-(trifluoromethyl)pyrazolo[1,5-a]pyrimidin-7(4H)-one], the IC50 is 20 to 250 µM.

On to `Cc1[nH]c2c(-c3ccccc3)c(C(F)(F)F)nn2c(=O)c1-c1nnc(-c2ccccc2)o1` [Compound D1011, 5-methyl-3-phenyl-6-(5-phenyl-1,3,4-oxadiazol-2-yl)-2-(trifluoromethyl)pyrazolo[1,5-a]pyrimidin-7(4H)-one], for which the IC50 is above 250 µM.

Consider `COc1cccc2oc(-c3c(C(C)=O)[nH]c4c(-c5ccccc5)c(C(F)(F)F)nn4c3=O)nc12` [Compound C1144, 5-acetyl-6-(4-methoxybenzo[d]oxazol-2-yl)-3-phenyl-2-(trifluoromethyl)pyrazolo[1,5-a]pyrimidin-7(4H)-one], for which the IC50 fell in the range of 20 to 250 µM.

`Cc1[nH]c2c(-c3ccccc3)c(C(F)(F)F)nn2c(=O)c1-c1nnc(C2CCCCC2N)o1` (stereo not drawn) [Compound D1080, 6-(5-(2-aminocyclohexyl)-1,3,4-oxadiazol-2-yl)-5-methyl-3-phenyl-2-(trifluoromethyl)pyrazolo[1,5-a]pyrimidin-7(4H)-one]: the IC50 was above 250 µM.

In the case of `Cc1[nH]c2c(-c3ccccc3)c(C(F)(F)F)nn2c(=O)c1-c1nnc(C2CCCC2)o1` [Compound D1003, 6-(5-cyclopentyl-1,3,4-oxadiazol-2-yl)-5-methyl-3-phenyl-2-(trifluoromethyl)pyrazolo[1,5-a]pyrimidin-7(4H)-one], the concentration for half-maximal inhibition (IC50) was below 20 µM.

For `Cc1[nH]c2c(-c3ccccc3)c(C(F)(F)F)nn2c(=O)c1-c1nnc(CC2CCN(C)CC2)o1` [Compound D1065, 5-methyl-6-(5-((1-methylpiperidin-4-yl)methyl)-1,3,4-oxadiazol-2-yl)-3-phenyl-2-(trifluoromethyl)pyrazolo[1,5-a]pyrimidin-7(4H)-one], the IC50 was 20 to 250 µM.

In the case of `Cc1[nH]c2c(-c3ccccc3)c(C(F)(F)F)nn2c(=O)c1C(=O)Nc1cccc(OC(F)(F)F)c1` [Compound A1050, 5-methyl-7-oxo-3-phenyl-N-(3-(trifluoromethoxy)phenyl)-2-(trifluoromethyl)-4,7-dihydropyrazolo[1,5-a]pyrimidine-6-carboxamide], the IC50 fell in the range of 20 to 250 µM.

As to `COc1nccnc1NC(=O)c1c(C)[nH]c2c(-c3ccccc3)c(C(F)(F)F)nn2c1=O` [Compound A1097, N-(3-methoxypyrazin-2-yl)-5-methyl-7-oxo-3-phenyl-2-(trifluoromethyl)-4,7-dihydropyrazolo[1,5-a]pyrimidine-6-carboxamide], the IC50 was 20 to 250 µM.

As for `COc1cccc(-c2c(C(F)(F)F)nn3c(=O)c(-c4nc5c(OC)cccc5o4)c(C)[nH]c23)c1` [Compound C1120, 6-(4-methoxybenzo[d]oxazol-2-yl)-3-(3-methoxyphenyl)-5-methyl-2-(trifluoromethyl)pyrazolo[1,5-a]pyrimidin-7(4H)-one], the IC50 was 20 to 250 µM.

As to `Cc1[nH]c2c(-c3ccccc3)c(C(F)(F)F)nn2c(=O)c1-c1nnc(C(=N)N)o1` [Compound D1074, 5-(5-methyl-7-oxo-3-phenyl-2-(trifluoromethyl)-4,7-dihydropyrazolo[1,5-a]pyrimidin-6-yl)-1,3,4-oxadiazole-2-carboximidamide], the IC50 was below 20 µM.

With `COc1c(Br)cccc1NC(=O)c1c(C)[nH]c2c(-c3ccccc3)c(C(F)(F)F)nn2c1=O` [Compound A1130, N-(3-bromo-2-methoxyphenyl)-5-methyl-7-oxo-3-phenyl-2-(trifluoromethyl)-4,7-dihydropyrazolo[1,5-a]pyrimidine-6-carboxamide], the IC50 fell in the range of 20 to 250 µM.

As to `COc1cccc2oc(-c3c(C)[nH]c4c(-c5cccc(C)c5)c(C(F)(F)F)nn4c3=O)nc12` [Compound C1172, 6-(4-methoxybenzo[d]oxazol-2-yl)-5-methyl-3-(m-tolyl)-2-(trifluoromethyl)pyrazolo[1,5-a]pyrimidin-7(4H)-one], the IC50 was below 20 µM.

On to `Cc1[nH]c2c(-c3ccccc3)c(C(F)(F)F)nn2c(=O)c1-c1nnc(C2CCN(C(=O)OC(C)(C)C)CC2)o1` [Compound D1044, tert-butyl 4-(5-(5-methyl-7-oxo-3-phenyl-2-(trifluoromethyl)-4,7-dihydropyrazolo[1,5-a]pyrimidin-6-yl)-1,3,4-oxadiazol-2-yl)piperidine-1-carboxylate], for which the half-inhibitory concentration (IC50) was in the range of 20 to 250 µM.
